According to PMC11438102, “Modulation of cannabinoid receptor 2 alters neuroinflammation and reduces formation of alpha-synuclein aggregates in a rat model of nigral synucleinopathy” (Journal of Neuroinflammation, 2024):

Key:
[1] = Weekly body weights of AAV2/5-human WT Asyn rats; assay type: in vivo, rat; details: low and high cohorts, 6 mg/kg i.p. daily, over 8 weeks, vs vehicle
Description: Sprague Dawley male rats (16–18 weeks of age, 400–525 g) were purchased from Charles River Laboratories and acclimated to Emory University animal facilities. Rats were pair housed in standard plexiglass cages under normal 12-hr light cycles and handled in accordance with protocols approved by the IACUC of Emory University in Atlanta, GA. Rats were administered unilateral injections of AAV2/5-human wild-type (WT) Asyn at titers of 2.9–4.3 × 10^11 vector genomes (vg)/mL (termed “low cohort”), which was previously shown to not induce nigral neurotoxicity. Thereby, generating a model with overexpression of human WT Asyn and Asyn-mediated neuroinflammation. One week after surgery, animals were randomly selected to receive daily systemic injections of either SMM-189 (intraperitoneal (i.p.), 6 mg/kg, n = 12) or vehicle (i.p., n = 12) and followed for 8 weeks (Figs. 1; n = 2 rats per group were removed due to poor nigral targeting). The dose of SMM-189 was based on a pharmacokinetic study in mice determining therapeutic brain-blood ratios as described below. […]
An additional cohort of rats (termed “high cohort”) was evaluated to determine effects of SMM-189 on immune cell populations in the brain, resident or infiltrating, and the periphery as measured by flow cytometry (Fig. 1). […] Brains were collected at endpoints, and brain immune cells isolated and evaluated using multicolor flow cytometry. […]

[2] = test system: brain immune cells; experiment: Multicolor flow cytometry of brain immune cells (high cohort); assay type: in vivo, rat
Description: An additional cohort of rats (termed “high cohort”) was evaluated to determine effects of SMM-189 on immune cell populations in the brain, resident or infiltrating, and the periphery as measured by flow cytometry (Fig. 1). To ensure infiltrating peripheral immune cells, rats were stereotaxically injected with a higher titer of AAV2/5-human WT Asyn (4.6 × 10^12 vg/mL) and underwent an identical drug treatment timeline with animals sacrificed at 4 (SMM-189: n = 5; vehicle: n = 6) and 8 weeks (SMM-189: n = 7; vehicle: n = 7). At sacrifice, animals were deeply anesthetized with euthasol (i.p., 150 mg/kg) and rapid decapitation performed using a sharp guillotine. Brains were collected at endpoints, and brain immune cells isolated and evaluated using multicolor flow cytometry. Additionally, blood was collected at baseline, 4 and 8 weeks (SMM-189: n = 13; vehicle: n = 13) after stereotaxic surgery for PBMCs isolation to immunophenotype using flow cytometry and for plasma evaluation of SMM-189.
Brains were collected from animals in the high cohort at either 4 or 8 weeks after AAV2/5-human WT Asyn and brain immune cells were isolated from individual hemispheres as previously described. Hemispheres were finely cut in RPMI 1640 media (Gibco Cat#11875-093) with a scalpel blade and enzymatically dissociated with collagenase VIII (1.4U/mL; Sigma Cat#C2139) and DNAse1 (1 mg/mL; Sigma Cat#DN25) in 37°C for 15 min. Enzymes were neutralized with 10%FBS (heat inactivated, Atlanta Biologicals Cat#S11150) in RPMI 1640 complete media and centrifuged 400g at room temperature. Tissue was resuspended in 1x HBSS and mechanically dissociated using a fire-polished Pasteur pipette until a cell suspension was generated. The suspension was passed through a 70µM cell strainer and strainers rinsed twice with 1x HBSS. To remove myelin, the strained suspension was centrifuged at 300g at 4 °C for 5 min and resuspended in 37% percoll and layered between 70% and 30% percoll gradients. The samples were centrifuged at 400g for 30 min at room temperature with the brake disabled. The top myelin layer was aspirated and demyelinated immune cells were collected from the 37% and 70% percoll interface with a pipette and washed with 1x HBSS twice, resuspended in PBS and placed in a 96-well v-bottom plate for flow cytometry staining.
Peripheral and central immune cell staining was performed similarly as previously published protocols. In brief, immune cells were washed and resuspended in PBS, then incubated for 30 min at room temperature in LIVE/DEAD Fixable Red Dead cell stain (ThermoFisher Scientific Cat#L23102; 1:2000). Following two washes in PBS, Fc receptors were blocked with anti-rat CD32 Fc block diluted 1:100 in FACS buffer (1mM EDTA and 0.1% sodium azide in PBS) for 15 min at 4°C. PBMCs were stained for separate myeloid and lymphoid panels and brain immune cells stained with an antibody panel to identify microglia, monocytes and lymphocytes (Table S1-S3). Fluorophore conjugated antibodies diluted with FACS buffer were incubated at 4 °C for 20 min. Cells stained for surface myeloid markers were fixed in 1% PFA for 25 min and washed in FACS.
PBMCs stained with lymphoid panel were further probed intracellularly for transcriptional marker Foxp3 to label […] T cells. […] Then washed and resuspended in FACs buffer. All samples had 10uL of AccuCheck Counting beads (ThermoFisher Cat#PCB100) added to final suspension and cells were run on a LSRII Instrument (BD Biosciences, Franklin Lakes, NJ) with FACSDiva software (BD Biosciences). Results were analyzed using FlowJo 10.8.1 software and brain immune populations of monocytes (classical and non-classical), lymphocytes (CD4 + and CD8+) or microglia and PBMC populations defined by specific strategies (Figure S1-S3). […]

[3] = 4 weeks, high cohort, treatment effect vs vehicle
[4] = 8 weeks, high cohort, treatment effect
[5] = 8 weeks, high cohort, vs control
[6] = 8 weeks, high cohort, vs vehicle

O=C(c1ccccc1)c1cc(O)c(-c2cc(Cl)cc(Cl)c2)c(O)c1 [SMM-189]
Rats weight, difference between treatment groups [1]: no significant differences
CD3+ lymphocytes parent population in brain ([2]; 4 weeks, high cohort): No CD3 + lymphocytes parent population differences
CD8 T cell frequencies in brain ([2]; 4 weeks, high cohort): not significantly different
MHCII MFI on microglia ([2]; 4 weeks, high cohort): no changes
classical or non-classical monocyte subset frequencies in brain ([2]; 4 weeks, high cohort): no treatment differences
frequency of microglia ([2]; 4 weeks, high cohort): no difference
frequencies of CD4+ T cells in brain ([2]; 4 weeks, high cohort, treatment effect): overall reduction
frequency of CD45hiCD11b myeloid/monocytes in brain [2, 3]: reduced
frequency of CD163+ macrophages in brain [2, 3]: reduced
MFI of CD11b on microglia ([2]; 4 weeks, unlesioned hemispheres, vs control): reduced
intensity of MHCII on microglia ([2]; 8 weeks, high cohort): no different
microglial MFI of CD11b [2, 4]: elevated
microglial MFI of CD172a [2, 4]: elevated
brain population frequency of lymphocytes (CD45+CD11b-) [2, 5]: did not affect
brain population frequency of macrophages (CD11b+CD163+) [2, 5]: did not affect
brain population frequency of microglia (CD45loCD11b+) [2, 5]: did not affect
brain population frequency of monocytes (CD45hiCD11b+) [2, 5]: did not affect
CD4+ lymphocytes in brain [2, 6]: increased
CD8+ lymphocytes in brain [2, 6]: decreased
frequency of MHCII+ classical (CD43-) monocytes in brain ([2]; 8 weeks, lesioned hemispheres, vs vehicle): elevated
